Source: ChEMBL document CHEMBL1148288, “A new aliphatic amino prodrug system for the delivery of small molecules and proteins utilizing novel PEG derivatives” (J Med Chem, 2004)
Structures can show the parent of a compound that is named as a salt.

tested on: P388; assay: In vitro inhibitory activity against cancerous P388 cell line; format: functional, cell-based; details: Mus musculus

Row | IC50 [nM] | SMILES
1 | 428 | COCCOCCOC(=O)NCC(=O)OCCN(CCOC(=O)CNC(=O)OCCOCCOC)CC(=O)NC(=O)[C@@]1(O)Cc2c(O)c3c(c(O)c2[C@H](OC2CC(N)C(O)C(C)O2)C1)C(=O)c1c(OC)cccc1C3=O (stereo not given in full)
2 | 1100 | COCCOCCOC(=O)NCCOCCOCC(=O)OCCN(CCOC(=O)COCCOCCNC(=O)OCCOCCOC)CC(=O)NC(=O)[C@@]1(O)Cc2c(O)c3c(c(O)c2[C@H](OC2CC(N)C(O)C(C)O2)C1)C(=O)c1c(OC)cccc1C3=O (stereo not given in full)
3 | 316 | COCCOCCOC(=O)NC(C)C(=O)OCCN(CCOC(=O)C(C)NC(=O)OCCOCCOC)CC(=O)NC(=O)[C@@]1(O)Cc2c(O)c3c(c(O)c2[C@H](OC2CC(N)C(O)C(C)O2)C1)C(=O)c1c(OC)cccc1C3=O (stereo not given in full)
4 | 455 | COCCOCCOC(=O)NCCOCCOCCNC(=O)COCC(=O)OCCN(CCOC(=O)COCC(=O)NCCOCCOCCNC(=O)OCCOCCOC)CC(=O)NC(=O)[C@@]1(O)Cc2c(O)c3c(c(O)c2[C@H](OC2CC(N)C(O)C(C)O2)C1)C(=O)c1c(OC)cccc1C3=O (stereo not given in full)
5 | 17 | COc1cccc2c1C(=O)c1c(O)c3c(c(O)c1C2=O)C[C@@](O)(C(=O)CO)C[C@@H]3O[C@H]1C[C@H](N)[C@H](O)[C@H](C)O1 [DOXORUBICIN HYDROCHLORIDE]
